In patent US20250171437A1 (Agios Pharmaceuticals,Inc., priority 2022, published 2025):

Biological target: T1, human PAH with the R408W mutation (A375 R408W cells) (Homo sapiens, UniProt P00439, R408W)
T1 construct: expressed in transfected cells
T1 sequence (P00439 1-452 R408W): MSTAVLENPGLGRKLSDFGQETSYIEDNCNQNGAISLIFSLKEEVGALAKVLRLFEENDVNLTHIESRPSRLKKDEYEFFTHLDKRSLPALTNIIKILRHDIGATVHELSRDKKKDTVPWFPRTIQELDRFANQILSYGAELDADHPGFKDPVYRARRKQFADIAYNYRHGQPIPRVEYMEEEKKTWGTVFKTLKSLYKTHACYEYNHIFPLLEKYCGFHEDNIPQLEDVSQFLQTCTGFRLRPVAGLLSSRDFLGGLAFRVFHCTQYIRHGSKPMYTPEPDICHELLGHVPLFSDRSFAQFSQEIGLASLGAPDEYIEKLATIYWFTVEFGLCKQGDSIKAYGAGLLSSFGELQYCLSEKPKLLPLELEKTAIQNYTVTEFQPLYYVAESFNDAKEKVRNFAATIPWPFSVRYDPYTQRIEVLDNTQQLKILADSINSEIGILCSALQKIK
Experiment: Cell Based Phenylalanine Flux Assay
Conditions: A375 cells expressing R408W PAH; 24 hrs with compound, then 20 μM sepiapterin and 800 μM 13C9,15N-Phenylalanine for 4 hours; 13C-Tyrosine by LC-MS; average where tested multiple times
Outline: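 A375 cells stably expressing lentiviral human PAH R408W were treated with compounds (10-point 2-fold dilutions, 0.5% DMSO, duplicate) for 24 h at 37 °C. Then 20 μM sepiapterin and 800 μM 13C9,15N-Phe were added for 4 h; media 13C-Tyr was measured by LC-MS to give AC50.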

SMILES	AC50 [µM]
O=C(c1cnn2cc(N3CCC(O)CC3)ccc12)N1CCc2[nH]cnc2C1c1nc2c(F)cccc2o1 (centres unmarked) [listing 1 of 2 here]	≥ 5
O=C(c1cnn2cc(N3CCC(O)CC3)ccc12)N1CCc2[nH]cnc2C1c1nc2c(F)cc(F)cc2o1 (centres unmarked) [listing 1 of 2 here]	≥ 5
O=C(c1cnn2cc(N3CCC(O)CC3)ccc12)N1CCc2[nH]cnc2C1c1nc2ccc(F)c(F)c2o1 (centres unmarked)	1 to 5
O=C(Cc1cnn2ccccc12)N1CCc2[nH]cnc2C1c1nc2cc(F)ccc2o1 (centres unmarked)	≥ 5
O=C(CCc1nccs1)N1CCc2[nH]cnc2C1c1nc2ccc(Br)cc2o1 (centres unmarked) [listing 1 of 2 here]	≥ 5
Cn1nc(C(C)(C)C)nc1C(=O)N1CCc2[nH]cnc2C1c1nc2ccccc2o1 (centres unmarked) [listing 1 of 2 here]	≥ 5
Cn1nc(C(C)(C)C)cc1C(=O)N1CCc2[nH]cnc2C1c1nc2ccccc2o1 (centres unmarked) [listing 1 of 2 here]	≥ 5
COc1ccc2oc(C3c4nc[nH]c4CCN3C(=O)c3cnc(C(C)(C)O)o3)nc2c1 (centres unmarked) [listing 1 of 2 here]	≥ 5
Cc1ccc2oc(C3c4nc[nH]c4CCN3C(=O)c3nnc(C(C)(C)O)o3)nc2c1 (centres unmarked) [listing 1 of 2 here]	≥ 5
Cn1nc(-c2ccccn2)nc1C(=O)N1CCc2[nH]cnc2C1c1nc2cccc(F)c2o1 (centres unmarked) [listing 1 of 2 here]	≥ 5
Cc1ccc2nc(C3c4nc[nH]c4CCN3C(=O)c3cnn4cc(CN(C)C)ccc34)oc2c1 (centres unmarked) [listing 1 of 2 here]	≥ 5
O=C(c1cnn2cc(N3CCC(O)CC3)ccc12)N1CCc2[nH]cnc2C1c1nc2ccccc2o1 (centres unmarked)	1 to 5
O=C(c1cnn2cc(N3CCC(O)CC3)ccc12)N1CCc2[nH]cnc2C1c1nc2c(F)cccc2o1 (centres unmarked) [listing 2 of 2 here]	1 to 5
O=C(c1cnn2cc(N3CCC(O)CC3)ccc12)N1CCc2[nH]cnc2C1c1nc2c(F)cc(F)cc2o1 (centres unmarked) [listing 2 of 2 here]	1 to 5
COc1ccc2oc(C3c4nc[nH]c4CCN3C(=O)c3cnn4cc(N5CCC(O)CC5)ccc34)nc2c1 (centres unmarked)	≥ 5
Cc1cccc2nc(C3c4nc[nH]c4CCN3C(=O)c3cnn4cc(N5CCC(O)CC5)ccc34)oc12 (centres unmarked)	1 to 5
O=C(CCc1nccs1)N1CCc2[nH]cnc2C1c1nc2ccc(Br)cc2o1 (centres unmarked) [listing 2 of 2 here]	1 to 5
CC(C)(O)c1nc(C(F)F)c(C(=O)N2CC(C)(C)c3[nH]cnc3C2c2nc3cc(F)ccc3o2)o1 (centres unmarked)	≥ 5
CC(C)(O)c1nc(C(F)F)c(CN2CCc3[nH]cnc3C2c2nc3cc(F)ccc3o2)o1 (centres unmarked)	≥ 5
O=C(c1ccn(-c2ccccn2)n1)N1CCc2[nH]cnc2C1c1nc2ccccc2o1 (centres unmarked)	1 to 5
Cc1nc(C(=O)N2CCc3[nH]cnc3C2c2nc3ccccc3o2)n(C)n1 (centres unmarked)	1 to 5
Cn1nc(C(C)(C)C)nc1C(=O)N1CCc2[nH]cnc2C1c1nc2ccccc2o1 (centres unmarked) [listing 2 of 2 here]	1 to 5

SMILES	AC50 [µM]
COc1cccc2nc(C3c4nc[nH]c4CCN3C(=O)c3nc(C(C)(C)C)nn3C)oc12 (centres unmarked)	1 to 5
Cc1cccc2nc(C3c4nc[nH]c4CCN3C(=O)c3nc(C(C)(C)C)nn3C)oc12 (centres unmarked)	1 to 5
Cc1cccc2nc(C3c4nc[nH]c4CCN3C(=O)c3cc(C(C)(C)C)nn3C)oc12 (centres unmarked)	1 to 5
Cn1nc(C(C)(C)C)cc1C(=O)N1CCc2[nH]cnc2C1c1nc2ccccc2o1 (centres unmarked) [listing 2 of 2 here]	1 to 5
CC(C)(O)c1ncc(C(=O)N2CCc3[nH]cnc3C2c2nc3ccccc3o2)o1 (centres unmarked)	1 to 5
COc1cccc2oc(C3c4nc[nH]c4CCN3C(=O)c3cnc(C(C)(C)O)o3)nc12 (centres unmarked)	1 to 5
COc1ccc2oc(C3c4nc[nH]c4CCN3C(=O)c3cnc(C(C)(C)O)o3)nc2c1 (centres unmarked) [listing 2 of 2 here]	1 to 5
Cc1ccc2oc(C3c4nc[nH]c4CCN3C(=O)c3nnc(C(C)(C)O)o3)nc2c1 (centres unmarked) [listing 2 of 2 here]	1 to 5
Cc1cccc2nc(C3c4nc[nH]c4CCN3C(=O)c3cnc(C(C)(C)O)o3)oc12 (centres unmarked)	1 to 5
CC1(C)CN(C(=O)c2ocnc2C(F)F)C(c2nc3cc(F)ccc3o2)c2nc[nH]c21 (centres unmarked)	≥ 5
Cn1ccc(-c2nnc(C(=O)N3CCc4[nH]cnc4C3c3nc4cc(C(F)(F)F)ccc4o3)o2)n1 (centres unmarked)	1 to 5
Cn1cc(-c2nnc(C(=O)N3CCc4[nH]cnc4C3c3nc4cc(C(F)(F)F)ccc4o3)o2)cn1 (centres unmarked)	1 to 5
COc1ccc(-c2nnc(C(=O)N3CCc4[nH]cnc4C3c3nc4cc(C(F)(F)F)ccc4o3)o2)nc1 (centres unmarked)	1 to 5
O=C(c1nnc(-c2ccccn2)o1)N1CCc2[nH]cnc2C1c1nc2cc(C(F)(F)F)ccc2o1 (centres unmarked)	1 to 5
O=C(C1CC1)N1CCc2[nH]cnc2C1c1nc2cc(F)ccc2o1 (centres unmarked)	1 to 5
O=C(c1nc(C(F)(F)F)co1)N1CCc2nc[nH]c2C1c1nc2cc(F)ccc2o1 (centres unmarked)	1 to 5
O=C(c1nnc(-c2ncccn2)o1)N1CCc2[nH]cnc2C1c1nc2cc(F)ccc2o1 (centres unmarked)	1 to 5
Cc1ccc2nc(C3c4nc[nH]c4CCN3C(=O)c3nnc(C)o3)oc2c1 (centres unmarked)	≥ 5
Cn1nc(-c2ccccn2)nc1C(=O)N1CCc2[nH]cnc2C1c1nc2cccc(F)c2o1 (centres unmarked) [listing 2 of 2 here]	1 to 5
COc1cccc2nc(C3c4nc[nH]c4CCN3C(=O)c3ccnn3-c3ccccn3)oc12 (centres unmarked)	1 to 5
Cc1cccc2nc(C3c4nc[nH]c4CCN3C(=O)c3ccnn3-c3ccccn3)oc12 (centres unmarked)	1 to 5
Cc1ccc2nc(C3c4nc[nH]c4CCN3C(=O)c3cnn4cc(CN(C)C)ccc34)oc2c1 (centres unmarked) [listing 2 of 2 here]	1 to 5

Other lines, results leading:

AC50 [µM]	SMILES
≥ 5	Cn1nc(C(C)(C)C)cc1C(=O)N1CCc2[nH]cnc2C1c1nc2cccc(F)c2o1 (centres unmarked) [listing 1 of 2 here]
≥ 5	Cn1nc(C(C)(C)O)nc1C(=O)N1CCc2[nH]cnc2C1c1nc2cccc(F)c2o1 (centres unmarked) [listing 1 of 2 here]
≥ 5	O=C(c1cnco1)N1CCc2[nH]cnc2C1c1nc2c(F)c(F)ccc2o1 (centres unmarked) [listing 1 of 2 here]
≥ 5	Cn1cncc1-c1nnc(C(=O)N2CCc3[nH]cnc3C2c2nc3cc(F)ccc3o2)o1 (centres unmarked) [listing 1 of 2 here]
≥ 5	COc1ccc2oc(C3c4nc[nH]c4CCN3C(=O)c3cnco3)nc2c1 (centres unmarked) [listing 1 of 2 here]
≥ 5	Cc1ccc2oc(C3c4nc[nH]c4CCN3C(=O)c3nnc(C)o3)nc2c1 (centres unmarked) [listing 1 of 2 here]
≥ 5	Cc1ccc2nc(C3c4nc[nH]c4CCN3C(=O)c3cnco3)oc2c1 (centres unmarked) [listing 1 of 2 here]
≥ 5	O=C(c1cnn2cc(N3CCC(O)CC3)ccc12)N1CCc2[nH]cnc2C1c1nc2c(F)c(F)ccc2o1 (centres unmarked)
1 to 5	CC(C)(O)c1nc(C(F)F)c(C(=O)N2CCCc3[nH]cnc3C2c2nc3cc(F)ccc3o2)o1 (centres unmarked)
1 to 5	O=C(c1ccnn1C(F)F)N1CCc2[nH]cnc2C1c1nc2c(F)c(F)ccc2o1 (centres unmarked)
1 to 5	O=C(c1ccnn1-c1ccccn1)N1CCc2[nH]cnc2C1c1nc2ccccc2o1 (centres unmarked)
1 to 5	Cc1cccc2nc(C3c4nc[nH]c4CCN3C(=O)c3ccnn3C3CC3)oc12 (centres unmarked)
1 to 5	Cn1ncnc1C(=O)N1CCc2[nH]cnc2C1c1nc2ccccc2o1 (centres unmarked)
1 to 5	Cc1nc(C(=O)N2CCc3[nH]cnc3C2c2nc3c(F)cccc3o2)n(C)n1 (centres unmarked)
1 to 5	Cc1nc(C(=O)N2CCc3[nH]cnc3C2c2nc3c(F)ccc(F)c3o2)n(C)n1 (centres unmarked)
1 to 5	Cn1nc(C(F)F)nc1C(=O)N1CCc2[nH]cnc2C1c1nc2c(F)c(F)ccc2o1 (centres unmarked)
1 to 5	Cn1nc(C(F)F)nc1C(=O)N1CCc2[nH]cnc2C1c1nc2c(F)cc(F)cc2o1 (centres unmarked)
1 to 5	Cn1nc(C(F)F)nc1C(=O)N1CCc2[nH]cnc2C1c1nc2ccc(F)c(F)c2o1 (centres unmarked)
1 to 5	Cn1nc(C(C)(C)C)nc1C(=O)N1CCc2[nH]cnc2C1c1nc2cccc(F)c2o1 (centres unmarked)
1 to 5	Cn1nc(C(C)(C)C)cc1C(=O)N1CCc2[nH]cnc2C1c1nc2cccc(F)c2o1 (centres unmarked) [listing 2 of 2 here]
1 to 5	CC(C)(O)c1ncc(C(=O)N2CCc3[nH]cnc3C2c2nc3c(F)c(F)ccc3o2)o1 (centres unmarked)

AC50 [µM]	SMILES
1 to 5	CC(C)(O)c1ncc(C(=O)N2CCc3[nH]cnc3C2c2nc3cc(F)cc(F)c3o2)o1 (centres unmarked)
1 to 5	CC(C)(O)c1ncc(C(=O)N2CCc3[nH]cnc3C2c2nc3ccc(F)cc3o2)o1 (centres unmarked)
1 to 5	CC(C)(O)c1ncc(C(=O)N2CCc3[nH]cnc3C2c2nc3ccc(F)c(F)c3o2)o1 (centres unmarked)
1 to 5	Cn1nc(C(C)(C)O)nc1C(=O)N1CCc2[nH]cnc2C1c1nc2cccc(F)c2o1 (centres unmarked) [listing 2 of 2 here]
≥ 5	O=C(c1nnc(-c2cnn(C(F)F)c2)o1)N1CCc2[nH]cnc2C1c1nc2cc(C(F)(F)F)ccc2o1 (centres unmarked)
1 to 5	O=C(c1nnc(-c2ccn(C(F)F)n2)o1)N1CCc2[nH]cnc2C1c1nc2cc(C(F)(F)F)ccc2o1 (centres unmarked)
1 to 5	O=C(c1nnc(-c2ncccc2F)o1)N1CCc2[nH]cnc2C1c1nc2cc(C(F)(F)F)ccc2o1 (centres unmarked)
≥ 5	Fc1ccc2oc(C3c4nc[nH]c4CCN3Cc3ocnc3C(F)F)nc2c1 (centres unmarked)
1 to 5	O=C(c1cnco1)N1CCc2[nH]cnc2C1c1nc2c(F)c(F)ccc2o1 (centres unmarked) [listing 2 of 2 here]
1 to 5	Cn1ncnc1C(=O)N1CCc2[nH]cnc2C1c1nc2c(F)ccc(F)c2o1 (centres unmarked)
1 to 5	Cn1cnc(-c2nnc(C(=O)N3CCc4[nH]cnc4C3c3nc4cc(F)ccc4o3)o2)c1 (centres unmarked)
1 to 5	Cn1cncc1-c1nnc(C(=O)N2CCc3[nH]cnc3C2c2nc3cc(F)ccc3o2)o1 (centres unmarked) [listing 2 of 2 here]
1 to 5	O=C(c1nnc(-c2ccncn2)o1)N1CCc2[nH]cnc2C1c1nc2cc(F)ccc2o1 (centres unmarked)
1 to 5	COc1ccc2oc(C3c4nc[nH]c4CCN3C(=O)c3cnco3)nc2c1 (centres unmarked) [listing 2 of 2 here]
1 to 5	Cc1ccc2oc(C3c4nc[nH]c4CCN3C(=O)c3nnc(C)o3)nc2c1 (centres unmarked) [listing 2 of 2 here]
1 to 5	Cc1ccc2nc(C3c4nc[nH]c4CCN3C(=O)c3cnco3)oc2c1 (centres unmarked) [listing 2 of 2 here]
1 to 5	O=C(c1cnco1)N1CCc2[nH]cnc2C1c1nc2ccc(F)c(F)c2o1 (centres unmarked)
1 to 5	CC(C)n1nccc1C(=O)N1CCc2[nH]cnc2C1c1nc2cccc(F)c2o1 (centres unmarked)
1 to 5	Cn1nccc1C(=O)N1CCc2[nH]cnc2C1c1nc2cccc(F)c2o1 (centres unmarked)
≥ 5	Cc1cccc2nc(C3c4nc[nH]c4CCN3C(=O)c3ccnn3C(C)C)oc12 (centres unmarked)
1 to 5	Cc1cccc2nc(C3c4nc[nH]c4CCN3C(=O)c3ncnn3C)oc12 (centres unmarked)
